Laboratory results taken from patent US10933114B2, “Nutritional supplements containing a peptide component and uses thereof” (Mead Johnson Nutrition Company, priority 2014, dated 2021).

Columns and labels:
Format in all cases: in vivo
[1] = tested on: LDLr knockout mice; assay: Body weight and food intake in LDLr knockout mice on high fat diet, 21 weeks (Examples 1 and 2, Study 2)
Excerpt: Both the high fat diet and the tested diets with the peptide component, LCPUFA, and LGG were isocaloric. A control diet (low fat, 10% kcal by fat) served as a reference group. The first study, indicated as Study 1 in Table 3 below, compared the mice on the high fat diet, to mice on a high fat diet supplemented with a combination of the peptide component, LCPUFA, and LGG. Whereas, the second study, indicated as Study 2 in Table 3 below, examined the effects on the mice of the individual ingredients.
Example 1 describes the experimental procedures for evaluating metabolic, and cardiovascular risk factors in LDLr knockout mice fed and HFD and supplemented with a peptide component, LCPUFA, and LGG.
The mice used were LDLr knockout mice, which phenotypically express the main risk factors that are characteristic for metabolic syndrome and that are hallmarks of human disease. Experiments were performed to conform to the rules and regulations set forward by the Netherlands Law on Animal Experiments and were approved by a Committee on Animal Experiments (DEC; approval number 3486).
Sixty-seven male LDLr−/− mice (11-18 weeks of age at the start of the experiment) obtained from the breeding facility at TNO were used. […]

[2] = tested on: LDLr knockout mice; assay: Fasting blood glucose, plasma insulin and HOMA-IR (Examples 1 and 2)
Description: (§1) At t=0 mice were matched into experimental groups based on blood glucose (primary matching parameter) and body weight (secondary matching parameter). The control group received a lard based high fat diet (HFD 45 kcal % from lard; diet D12451 Research Diets, New Brunswick, USA) containing 23.7% w/w protein, 41.4% w/w carbohydrates and 23.6% w/w fat.
Blood samples were takes in week 0, 3, 6, 9, 15 and 21 after 5 hours of fasting. Blood glucose was measured using hand-held glucometer immediately. Plasma cholesterol and plasma triglyceride levels were assayed immediately in fresh EDTA-plasma. The remainder of the plasma was stored at −80° C. for analysis of insulin and ALAT, and for possible other additional follow-up analysis. Faecal samples were collected over a 48 hour period at cage level in week 0, 9, and 21. […] Total body fat and lean body mass were assessed non-invasively by EchoMR1 in week 0, 9, 15, and 21. […] During that time, total body fat and lean body mass were calculated and recorded and the mouse was removed from the apparatus.
Blood glucose was measured immediately using a hand-held glucometer. Total plasma cholesterol and triglyceride levels were measured using kits No. 11489437 and 11488872 (Roche Diagnostics, Almere, The Netherlands), respectively. The plasma levels of insulin (Ultrasensitive mouse insulin ELISA, Merdocia, Uppsala, Sweden) were determined by ELISA. […]

[3] = tested on: LDLr knockout mice; assay: Fasting plasma cholesterol and triglycerides (Examples 1 and 2)
Description: as §1
(§2) Blood samples were takes in week 0, 3, 6, 9, 15 and 21 after 5 hours of fasting. Blood glucose was measured using hand-held glucometer immediately. Plasma cholesterol and plasma triglyceride levels were assayed immediately in fresh EDTA-plasma. The remainder of the plasma was stored at −80° C. for analysis of insulin and ALAT, and for possible other additional follow-up analysis. Faecal samples were collected over a 48 hour period at cage level in week 0, 9, and 21. Additionally, individual faecal samples were collected in week 21 to allow individual faecal analysis. Total body fat and lean body mass were assessed non-invasively by EchoMR1 in week 0, 9, 15, and 21. Mice were placed in a constraint tube which was then inserted into the EchoMR1 for a period of approximately 30 seconds. During that time, total body fat and lean body mass were calculated and recorded and the mouse was removed from the apparatus.
Blood glucose was measured immediately using a hand-held glucometer. Total plasma cholesterol and triglyceride levels were measured using kits No. 11489437 and 11488872 (Roche Diagnostics, Almere, The Netherlands), respectively. The plasma levels of insulin (Ultrasensitive mouse insulin ELISA, Merdocia, Uppsala, Sweden) were determined by ELISA.
(§3) Example 2 describes the experimental procedures for evaluating metabolic, and cardiovascular risk factors in LDLr knockout mice fed a HFD supplemented with a >500 Da peptide fraction of the Peptide component. The same experimental procedures and methodologies as employed in Example 1 were used in Example 2.

[4] = tested on: LDLr knockout mice; assay: Liver function marker ALAT in pooled plasma (Examples 1 and 2)
Description: as §2
ALAT levels were measured at baseline, week 9 and week 21 in pooled plasma. Baseline levels were low (11 U/L). Upon HFD feeding, ALAT levels increased to 58 U/L in week 9 and further increased to 187 U/L in week 21 in the HFD group. For comparison, ALAT levels in chow fed mice reached levels of approximately 52 U/L in week 21 (data from other study). […] Also ALAT level in LGG treated mice were lower compared to HFD (66 U/L in week 9 and 124 U/L in week 21). […]

[5] = tested on: LDLr knockout mice; assay: Body composition analysis by EchoMRI (Examples 1 and 2); conditions: absolute values
Description: as §2, §3

[6] = tested on: LDLr knockout mice; assay: Tissue weights at sacrifice, week 21 (Examples 1 and 2); conditions: sacrifice after 21 weeks
Description: The mice were sacrificed (un-fasted) in week 21. After sacrifice, the following samples were isolated: • Serum Sample by heart puncture • Heart including aortic root (for atherosclerosis analysis) • Aortic arch (thoracic) in −80° C. • Total liver weight, 2 pieces of sinister and caudate lobe in −80° C., medial lobe formalin • Adipose tissue • Sub cutaneous (inguinal): weight, right in −80° C., left in formalin • Epididymal: weight, right in −80° C., left in formalin • Visceral (omental): weight, part in −80° C., part in formalin • Brown adipose tissue weight part in −80° C., part in formalin • Pancreas in −80° C. • Spleen (in formalin) • Kidneys (right in −80° C., left in formalin) • Ileum (last 8 cm before caecum) in −80° C. • Colon (including faeces) in −80° C. • Eyes: left in Davidson formalin, right in −80° C. • Brain (right in −80° C., left in 4% paraformaldehyde
After 21 weeks of dietary treatment, the mice were sacrificed. Tissues were isolated and weighed.
as §3

Lactobacillus rhamnosus GG [LGG]
Body weight compared to HFD ([1]; after 21 weeks): slightly, but not significantly lower compared to HFD
Body weight ([1]; after 21 weeks of HFD feeding): 45.8 ± 5.3 g
Fasting blood glucose, difference to HFD control ([2]; t=9 weeks, temporary drop in HFD control absent in these groups): significant differences
Fasting plasma insulin compared to HFD control ([2]; week 21 (NHLL, Peptide component), time not stated for LCPUFA, LGG): comparable to the HFD control group
Plasma triglycerides compared to HFD control ([3]; NHLL week 9 until week 21, Peptide component all time points): slightly, but not significantly lower compared with HFD control
Plasma cholesterol compared to other groups ([3]; throughout the study): no significant effects on plasma cholesterol
Plasma triglycerides ([3]; week 21): 2.0 ± 1.0 mM
ALAT ([4]; week 9, pooled plasma): 66 U/L
ALAT ([4]; week 21, pooled plasma): 124 U/L
Total body fat compared to HFD [5]: No effects on total body fat
Liver weight compared to HFD [6]: tended to be lower compared to the HFD
Adipose tissue weights compared to HFD ([6]; three depots): comparable to HFD
